Laboratory results reported in patent US20170044150A1, “IDENTIFICATION OF COMPOUNDS WHICH INHIBIT ATG8-ATG3 PROTEIN-PROTEIN INTERACTION AND THEIR USE AS ANTIPARASITICAL AGENTS” (THE JOHNS HOPKINS UNIVERSITY, priority 2014, published 2017).
Like-named read-outs stand apart in the source and are kept apart here.

How the values were obtained:
PfAtg8^CM [1] = target: PfAtg8^CM (Plasmodium falciparum, UniProt Q8IJK2); assay: SPR direct binding of compound 1 to immobilized His12-PfAtg8^CM; design: other: 2-fold dilution series, highest 75 μM; fused on or other part: N-terminal His12 tag; species or system P. falciparum; settings: 2-fold dilution series, highest 75 μM
Protocol: His12-PfAtg8^CM was injected over an NTA-chip (GE Healthcare) preconditioned with nickel, leading to capture of 3,000 response units (RUs). Running buffer contained 3% DMSO. A 2-fold-dilution series of compounds, highest concentration of 75 μM, was injected over PfAtg8 variants at 40 μL/minute.
Determination of the PTA binding site on PfAtg8. The inventors tested whether these compounds bound directly to PfAtg8 using SPR. PfAtg8^CM was immobilized onto an SPR Ni-NTA chip via a twelve histidine N-terminal tag. […] It was then sought to determine the binding site for the PTA compounds with in silico docking.

P. yoelii liver stage = settings: screening concentration 10 μM; cited from earlier work
HC-04 cells = assay: HC-04 hepatocyte viability / cytotoxicity (Annexin-V, PI flow cytometry); type: cell-based, human; settings: 30 μM
Protocol: Detection of Annexin-V positive and PI-positive cells in hepatocyte cultures was done by flow cytometry according to the manufacturer's instruction (Invitrogen™, Life Technologies, Grand Island, N.Y., USA).
Hepatocyte cytotoxicity assay. Hepatocyte cytotoxicity assays were carried out in triplicate at two concentrations of inhibitory compounds using HC-04 cells as previously described. Flow cytometry was used to assess two cytotoxicity markers via staining, namely propidium iodine (PI) and Annexin-V.

human cell lines = settings: cited from earlier work
PfAtg8 = assay: Immunoblot analysis of PfAtg8 in P. falciparum blood stage cultures; type: cell-based; settings: for lipidation of PfAtg8: 12 hours
Source text: Immunoblot analysis of P. falciparum blood stage. […] RBCs were harvested with centrifugation, lysed with 0.2% saponin, and RBC lysate was removed through three 1× PBS washes. Parasites were harvested by centrifugation and washed in 1× PBS with Complete EDTA-free protease inhibitors (Roche) and lysed by repeated vortexing and boiling in SDS reducing sample buffer. […] HRP-conjugated secondary antibodies (Southern Biotech) were detected by SuperSignal West Femto (Thermo Scientific) or Amersham™ ECL™ Prime (GE Healthcare) chemiluminescent substrate. AP-conjugated secondary antibodies (EMD Millipore) were detected using NBT/BCIP (Promega) colorimetric stain. Total protein levels were visualized with ProAct™ Membrane Stain (Amresco) and quantified with ImageJ. Parasite morphology at time of harvesting was visualized with light microscopy at 100× magnification on Olympus BX53 system microscope (Olympus America, Inc.).

P. falciparum 3D7-GFP = type: cell-based; settings: for decrease in the proportion of infected hepatocytes (GFP+/PI- cells): 72 hours post infection
Protocol: In vitro infection of human hepatocytes with P. falciparum 3D7-GFP. The HC-04 cell line (ATCC, Manassas, Va., USA) was maintained in complete medium (IMDM containing 2.5% FCS, 100 units/ml penicillin, 100 μg/ml streptomycin and 2 mM L-glutamine, all from GIBCO®, Life Technologies, Grand Island, N.Y.). P. falciparum 3D7-GFP parasite strain (PLoS ONE 2010, 5, e9156) was propagated in the Parasitology Core facility, the Johns Hopkins Malaria Research Institute. In vitro infection of human hepatocytes was done as described previously (PLoS ONE 2013, 8, e75321). Briefly, salivary glands were sequestered from infected Anopheles gambiae mosquitoes at day 17 after exposure to infective blood meal and homogenates were separated on an OptiPrep™ Density Gradient (Sigma-Aldrich, St. Louis, Mo.) at 12,000×g for 10 minutes. Sporozoites were collected from the gradient interface, washed in complete medium, counted using a hemocytometer and incubated with HC-04 cells at 3:1 sporozoite to hepatocyte ratio for 2 hours at 37° C. […]
Detection of P. falciparum exoerythrocytic forms in vitro. HC-04 human hepatocyte cell line (ATCC, Manassas, Va., USA) was maintained in complete medium (IMDM containing 2.5% FCS, 100 units/ml penicillin, 100 μg/ml streptomycin and 2 mM L-glutamine, all from GIBCO®, Life Technologies, Grand Island, N.Y.). P. falciparum 3D7HT-GFP parasite strain (PLoS One. 5(2):e9156. doi:10.1371/journal.pone.0009156 (2010)) was propagated in the Parasitology Core facility of the Johns Hopkins Malaria Research Institute. In vitro infection of human hepatocytes, and detection and quantification of P. falciparum 3D7HT-GFP EEFs by flow cytometry were performed as previously described (PLoS One. 8(9):e75321. doi:10.1371/journal.pone.0075321 (2013)).

P. falciparum 3D7 = assay: SYBR Green I growth inhibition assay, blood stage; type: cell-based; settings: Plasmodium falciparum
Protocol: P. falciparum blood stage culturing. P. falciparum 3D7 and FCR3 cultures were maintained using modified, previously published methods at 37° C., 2% hematocrit of human red blood cells (Science 1976, 193, 673-675). Complete culture media consisted of sterile RPMI 1640 media (Life Technologies), supplemented with 10% human serum, 0.005% hypoxanthine, and buffered with final concentrations of 0.6% HEPES and 0.26% NaHCO3. The FCR3 strain was maintained at 3% CO2 and 5% O2, 92% N2 atmosphere, while the 3D7 strain was maintained at 5% CO2, 5% O2, 90% N2 atmosphere.
SYBR Green I growth inhibition assay. 10 μL of 10× compound diluted in RPMI 1640 media (Gibco) with a constant concentration of 1% DMSO was added to a 96 well plate (Costar), 90 μL of 1.5% ring stage, synchronized with 5% w/v sorbitol P. falciparum 3D7 parasites, 1% hematocrit, in culture media with 10% v/v human serum with 10 μg/mL gentamycin. Each compound concentration and 1% v/v DMSO controls were run in triplicate. Plates were incubated at 37° C. in 5% O2, 5% CO2 and 90% N2 for 72 hours. Plates were frozen, thawed, and incubated with 100-μL 2× SYBR green in lysis buffer (20 mM Tris pH 7.5, 5 mM EDTA, 0.008% Saponin, 0.08% TritonX-100) in the dark for at least one hour. Fluorescence was measured with a plate reader (HTS 7000, Perkin Elmer) at excitation/emission wavelengths of 485/535 nm.
Plasmodium parasite growth inhibition assay. P. falciparum 3D7 parasites were cultured as previously described (J Med Chem 57:4521-4531(2014)). Briefly, the parasites were cultured in 10% v/v human serum with 10 μg/mL gentamycin and synchronized with 5% w/v sorbitol. 1.5% ring stage parasites were added to 96 well plates (Costar) containing serial dilutions, performed in triplicate, of compound in RPMI 1640 media (Gibco). Plates were incubated at 37° C. in 5% O2, 5% CO2, and 90% N2 for 72 h. Plates were frozen, thawed, and incubated with 100 μL 2× SYBR green in lysis buffer (20 mM Tris pH 7.5, 5 mM EDTA, 0.008% Saponin, 0.08% TritonX-100) in the dark for 1 h. Fluorescence was measured with a plate reader (HTS 7000, PerkinElmer) at excitation/emission wavelengths of 485/535 nm.

PfAtg8^CM [2] = target: T1, PfAtg8^CM (Plasmodium falciparum, UniProt Q8IJK2); assay: SPR binding of PfAtg8^CM to immobilized compound 8; design: species or system P. falciparum
T1 construct: rows headed: KD; other: immobilized compound
T1 sequence (Q8IJK2 1-124 C32I/C119S/C122S): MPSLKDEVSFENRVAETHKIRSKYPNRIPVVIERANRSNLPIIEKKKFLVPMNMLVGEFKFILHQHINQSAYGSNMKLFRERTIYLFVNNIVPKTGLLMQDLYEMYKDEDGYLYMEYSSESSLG
Protocol: (§1) Direct binding of compound 8 to PfAtg8^CM. Compound 8 was injected over a neutravidin-coated SPR chip (GE Healthcare) on one flowcell, with 130 RUs immobilized, while BACH was injected over a reference flowcell (150 RUs immobilized). His6-PfAtg8^CM, Human LC3, or His6-PfAtg3 was injected in duplicate in running buffer containing 10 mM HEPES pH 7.5, 150 mM NaCl, 0.05% P20. Protein was dissociated from the chip after each cycle with 10 μL injection of 20 mM HEPES pH 7.4, 1% w/v SDS regeneration solution.
(§2) Synthesis of a novel PTA derivative with a functional handle. […] A PTA-benzaldehyde derivative, 4-formyl-N-(4-pyridin-2-yl-1,3-thiazol-2-yl)benzamide (compound 7) was synthesized with a functional handle extending off the common hydrophobic ring system (Table 1, Scheme 1). Compound 7 was prepared from commercially available PTA and 4-formyl benzoic acid through a DCC-promoted amide coupling. Compound 7 can be tethered through a dialkoxyamine linker to a library of aldehydes and screened using our primary SPR competition assay against the PfAtg8-PfAtg3 interaction. In docking studies, compound 7 bound the W- and L-site of PfAtg8 in a fashion similar to compound 2, with the functional handle positioned towards the A-loop pocket (FIG. 7A). A gain in parasite selectivity for such bifunctional analogs is expected as the A-loop is missing in the human Atg8 homologues. […]

[3] = target: PfAtg8-PfAtg3 interaction (Plasmodium falciparum, UniProt Q8IJK2); type: binding, P. falciparum
hLC3 = target: T2, hLC3 (Homo sapiens, UniProt Q9GZQ8); assay: SPR binding of hLC3 to immobilized compound 8
T2 construct: made in house
Protocol: as §1, §2

PfAtg3 = target: T3, PfAtg3 (Plasmodium falciparum, UniProt C0H519); assay: SPR binding of PfAtg3 to immobilized compound 8; settings: data not shown
T3 construct: made in house
T3 sequence (C0H519 1-313): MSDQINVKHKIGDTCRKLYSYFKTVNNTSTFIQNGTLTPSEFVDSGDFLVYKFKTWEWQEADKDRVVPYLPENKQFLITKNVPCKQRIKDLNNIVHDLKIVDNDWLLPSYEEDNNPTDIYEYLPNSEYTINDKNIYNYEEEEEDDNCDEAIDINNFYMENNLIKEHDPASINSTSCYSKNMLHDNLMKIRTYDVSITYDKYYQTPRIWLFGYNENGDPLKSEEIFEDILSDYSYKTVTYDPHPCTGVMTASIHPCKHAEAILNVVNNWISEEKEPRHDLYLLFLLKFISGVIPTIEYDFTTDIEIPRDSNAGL
Protocol: as §1, §2

[4] = 3D7, no asterisk, read-out: IC50 Blood stage

| SMILES | SPR response, direct binding to PfAtg8^CM (PfAtg8^CM [1]) | inhibition in P. yoelii liver stage cultures (P. yoelii liver stage) [%] | cell death in HC-04 cells (HC-04 cells) | reported cytotoxicity in human cell lines (human cell lines) | lipidation of PfAtg8 (PfAtg8; 5 μM) | lipidation of PfAtg8 (PfAtg8; 25 μM and 50 μM) | PfAtg8 protein levels (PfAtg8; 50 μM, five hours) | mobility of PfAtg8 (PfAtg8; 50 μM, five hours) | intensity of GFP fluorescence (P. falciparum 3D7-GFP; 3 μM and 30 μM, 72 hours) | decrease in the proportion of infected hepatocytes (GFP+/PI- cells) (P. falciparum 3D7-GFP; 3 μM) | decrease in the proportion of infected hepatocytes (GFP+/PI- cells) (P. falciparum 3D7-GFP; 30 μM) [%] | IC50 (P. falciparum 3D7; [4]) [µM] | IC50 (P. falciparum 3D7; 3D7, third experiment, read-out: IC50) [µM] | IC50 (P. falciparum 3D7; 3D7, two of three independent experiments, read-out: IC50) [µM] | IC50 (P. falciparum 3D7; 3D7, two to three experiments, read-out: average IC50) [µM] | Kd (PfAtg8^CM [2]) [µM] | LEAN (SPR) ([3]; -log (IC50)/number of heavy atoms) | IC50 ([3]; read-out: IC50 SPR, inhibition of PfAtg8-PfAtg3 interaction) [µM] | Kd (hLC3) [µM] | binding of recombinant PfAtg3 (PfAtg3) |
| --- | --- | --- | --- | --- | --- | --- | --- | --- | --- | --- | --- | --- | --- | --- | --- | --- | --- | --- | --- | --- |
| Cc1ccc(Nc2nc(-c3ccccn3)cs2)cc1 [Compound 1, N-(4-methylphenyl)-4-pyridin-2-yl-1,3-thiazol-2-amine] | dose-dependent increase in SPR response | ≤ 50 | did not observe cell death | much lower than that of compounds 2 or 3 | dose-dependent decrease in lipidation | unlipidated PfAtg8 is exclusively detected | drastic increase | shift in mobility, likely corresponding to the unlipidated form of PfAtg8 | dose-dependent reduction | but not 3 μM | ~50 | 1.47 | 3.3 | 0.768 | 1.61 ± 1.47 | – | – | – | – | – |
| O=C(CCCC[C@H]1SC[C@H]2NC(=O)N[C@H]21)NCCCCCC(=O)NNCc1ccc(C(=O)Nc2nc(-c3ccccn3)cs2)cc1 [Compound 8, 4-[[2-[6-[5-[(3aR,4R,6aS)-2-Oxo-1,3,3a,4,6,6a-hexahydrothieno[3,4-d]imidazol-4-yl]pentanoylamino]hexanoyl]hydrazinyl]methyl]-N-(4-pyridin-2-yl-1,3-thiazol-2-yl)benzamide] | – | – | – | – | – | – | – | – | – | – | – | 1.48 | – | – | – | 0.54 | 0.22 | 2.66 | 18 | did not bind |
